Experimental findings from ChEMBL document CHEMBL1201862, “PubChem BioAssay data set” (2004) are described below.

Activity calls are given as the source filed them. Bounds are passed on as bounds.

One assay relates to T-cell. Put plainly: loss of vesicle association with mouse CD8+ T cells – mouse 2C CD8+ T cells, flow cytometry, dose response (AID 485284). In kind it is functional. On the technique in general: In flow cytometry, cells or beads pass a laser one at a time.
For assay [1], the target named is T1, E3 ubiquitin-protein ligase XIAP (Homo sapiens, UniProt P98170). As to the kind of experiment: small molecules displacing peptide from XIAP – biochemical, IAP family, fluorescence polarization (AID 1018). In kind it is functional.
Assay [2] addresses T1, E3 ubiquitin-protein ligase XIAP. As to the kind of experiment: Counter Screen using XIAP-Bir3 for Chemical Antagonists of Bir1/2 domains of IAP-family anti-apoptotic proteins. [Related pubchem assays (depositor defined):AID1018, AID1449, AID1514, AID1638, AID1749, AID1750, AID488957, AID488963]. (A counterscreen serves to expose hits that act by an unwanted route or on another target.)

Assay [3] can be described thus: Trypanosoma cruzi growth suppression in host cells – NIH3T3 host cells, beta-gal luminescence, confirmation (AID 2044).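 Further: intracellular parasites grown in NIH/3T3 mouse fibroblasts as host cells; luminescent beta-galactosidase reporter signal from transgenic T. cruzi replicating inside host cells; inhibitors lower the luminescence signal.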 In kind it is functional, cell-based.
The next assay addresses T2, CAAX prenyl protease 2 (Homo sapiens, UniProt Q9Y256).
T2 sequence (Q9Y256 whole entry): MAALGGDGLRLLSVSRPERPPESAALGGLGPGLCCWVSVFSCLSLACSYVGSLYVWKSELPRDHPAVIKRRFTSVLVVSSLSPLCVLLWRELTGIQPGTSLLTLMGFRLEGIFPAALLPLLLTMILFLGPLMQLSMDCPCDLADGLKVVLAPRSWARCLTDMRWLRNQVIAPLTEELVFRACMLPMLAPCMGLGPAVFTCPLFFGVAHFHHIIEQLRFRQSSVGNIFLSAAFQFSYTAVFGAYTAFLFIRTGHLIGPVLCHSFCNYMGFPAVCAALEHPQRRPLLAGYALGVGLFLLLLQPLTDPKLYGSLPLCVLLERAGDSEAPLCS
Put plainly: inhibition of Ras-converting CAAX protease Rce1 – biochemical, yeast membranes, quenched-peptide fluorescence, cherry-pick, dose response (AID 588849).

Assay [4] in a line: toxicity toward cultured mammalian cells – cell-based, plate reader, cherry-pick samples, cytotoxicity control, dose response (AID 504397). In kind it is functional.
Assay [5] concerns Streptococcus sp. 'group A'. Put plainly: Streptococcus pyogenes SK(-)GAS viability under kanamycin – luminescence, BacTiterGlo, confirmation, counter-screen for streptokinase expression inhibitor project, dose response (AID 1900). The format is functional, organism-based.
Assay [6] can be described thus: NIH3T3 cell viability loss – ATP luminescence, mouse fibroblasts, counter-screen, dose response (AID 2010).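 Further: cells exposed to compound for about 90 hours before reading.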 The format is functional, cell-based.
For a further assay, the system named is Streptococcus. Put plainly: GAS UMAA2166 growth inhibition – luminescence, BacTiterGlo, counter-screen for streptokinase expression inhibitor project, dose response (AID 1915).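 Further: potency for reduction of bacterial viability or growth.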 In kind it is functional, organism-based.
A further assay addresses Troponin, cardiac muscle (Homo sapiens, UniProt P19429+P45379+P63316). As to the kind of experiment: Fluorescence-based biochemical high throughput dose response assay for activators of the calcium sensitivity of cardiac Regulated Thin Filaments (RTF). [Related pubchem assays (depositor defined):AID493008, AID493018, AID504382, AID504383]. In kind it is protein-complex assay.

For the next assay, the target named is T3, Coagulation factor XII (Homo sapiens, UniProt P00748).
T3 sequence (P00748 whole entry): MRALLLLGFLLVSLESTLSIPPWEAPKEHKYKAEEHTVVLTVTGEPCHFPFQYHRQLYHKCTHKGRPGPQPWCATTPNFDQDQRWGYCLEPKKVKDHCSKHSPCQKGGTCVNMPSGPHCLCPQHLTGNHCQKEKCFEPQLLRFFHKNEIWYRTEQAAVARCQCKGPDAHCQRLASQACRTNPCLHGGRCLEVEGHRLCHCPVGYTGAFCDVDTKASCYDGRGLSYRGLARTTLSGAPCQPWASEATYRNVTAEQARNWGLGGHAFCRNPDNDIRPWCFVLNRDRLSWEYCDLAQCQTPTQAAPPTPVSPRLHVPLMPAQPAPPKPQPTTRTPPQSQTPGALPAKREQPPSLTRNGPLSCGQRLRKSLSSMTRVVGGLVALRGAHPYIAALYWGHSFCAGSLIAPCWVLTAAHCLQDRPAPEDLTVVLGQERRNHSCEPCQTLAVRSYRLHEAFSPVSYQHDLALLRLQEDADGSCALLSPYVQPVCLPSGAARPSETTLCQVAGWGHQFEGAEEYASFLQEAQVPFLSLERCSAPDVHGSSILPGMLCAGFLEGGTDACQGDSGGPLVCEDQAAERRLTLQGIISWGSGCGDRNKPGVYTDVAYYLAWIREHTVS
Put plainly: Factor XIIa Dose Response Confirmation from Single Well HTS. [Related pubchem assays (depositor defined):AID701]. In kind it is functional.

The target in assay [7] is T4, Replicative DNA helicase DnaB (Mycobacterium tuberculosis, UniProt P9WMR3).
T4 sequence (P9WMR3 whole entry): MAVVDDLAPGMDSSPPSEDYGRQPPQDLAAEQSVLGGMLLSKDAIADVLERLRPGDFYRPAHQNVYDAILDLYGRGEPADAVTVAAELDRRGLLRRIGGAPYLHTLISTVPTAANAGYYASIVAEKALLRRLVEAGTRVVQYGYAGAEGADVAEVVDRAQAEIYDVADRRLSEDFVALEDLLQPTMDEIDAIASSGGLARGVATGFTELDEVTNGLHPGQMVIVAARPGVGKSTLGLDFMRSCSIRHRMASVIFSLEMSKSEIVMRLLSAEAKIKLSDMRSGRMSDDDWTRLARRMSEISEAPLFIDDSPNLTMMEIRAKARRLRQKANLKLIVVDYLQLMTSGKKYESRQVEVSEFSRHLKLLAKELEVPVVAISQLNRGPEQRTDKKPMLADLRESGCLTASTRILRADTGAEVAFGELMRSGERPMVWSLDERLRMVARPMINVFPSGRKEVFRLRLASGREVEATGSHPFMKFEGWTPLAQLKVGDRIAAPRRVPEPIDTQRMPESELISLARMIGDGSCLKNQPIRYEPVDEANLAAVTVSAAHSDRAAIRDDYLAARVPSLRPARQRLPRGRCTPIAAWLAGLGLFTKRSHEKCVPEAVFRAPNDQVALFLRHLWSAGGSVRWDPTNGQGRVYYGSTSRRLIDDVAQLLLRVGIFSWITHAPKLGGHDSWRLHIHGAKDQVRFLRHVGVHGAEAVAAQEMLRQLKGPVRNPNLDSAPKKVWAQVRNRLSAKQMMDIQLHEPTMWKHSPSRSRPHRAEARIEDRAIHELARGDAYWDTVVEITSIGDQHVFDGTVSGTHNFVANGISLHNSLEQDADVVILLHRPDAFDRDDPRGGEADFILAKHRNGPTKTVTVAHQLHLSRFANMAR
As to the kind of experiment: DnaB intein splicing inhibitors, dose response, biochemical, cell-free fluorescence (AID 449749). In kind it is functional.

A short description of assay [8]: Luminescence Cell-Based Dose Retest to Confirm Inhibitors of Cancer Stem Cells. [Related pubchem assays (depositor defined):AID2717, AID2721]. The format is functional. Particulars: Homo sapiens.
The next assay addresses Genome polyprotein (dengue virus type 2, UniProt P29990). Put plainly: flavivirus cap methylation enzyme inhibition – biochemical, confirmation dose response, primary screen (AID 588689). In kind it is functional.
Another assay relates to INS1. Put plainly: INS-1E survival protection against cytokine death – cell-based, luminescence, retest, dose response (AID 449756).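 Further: cell death triggered by IL-1 beta plus TNF-alpha plus IFN-gamma mixture; protective hits raise ATP signal compared with cytokine alone wells.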 Particulars: Rattus norvegicus. In kind it is functional.
The target of another assay is T5, Protein RecA (Mycobacterium tuberculosis, UniProt P9WHJ3).
T5 sequence (P9WHJ3 whole entry): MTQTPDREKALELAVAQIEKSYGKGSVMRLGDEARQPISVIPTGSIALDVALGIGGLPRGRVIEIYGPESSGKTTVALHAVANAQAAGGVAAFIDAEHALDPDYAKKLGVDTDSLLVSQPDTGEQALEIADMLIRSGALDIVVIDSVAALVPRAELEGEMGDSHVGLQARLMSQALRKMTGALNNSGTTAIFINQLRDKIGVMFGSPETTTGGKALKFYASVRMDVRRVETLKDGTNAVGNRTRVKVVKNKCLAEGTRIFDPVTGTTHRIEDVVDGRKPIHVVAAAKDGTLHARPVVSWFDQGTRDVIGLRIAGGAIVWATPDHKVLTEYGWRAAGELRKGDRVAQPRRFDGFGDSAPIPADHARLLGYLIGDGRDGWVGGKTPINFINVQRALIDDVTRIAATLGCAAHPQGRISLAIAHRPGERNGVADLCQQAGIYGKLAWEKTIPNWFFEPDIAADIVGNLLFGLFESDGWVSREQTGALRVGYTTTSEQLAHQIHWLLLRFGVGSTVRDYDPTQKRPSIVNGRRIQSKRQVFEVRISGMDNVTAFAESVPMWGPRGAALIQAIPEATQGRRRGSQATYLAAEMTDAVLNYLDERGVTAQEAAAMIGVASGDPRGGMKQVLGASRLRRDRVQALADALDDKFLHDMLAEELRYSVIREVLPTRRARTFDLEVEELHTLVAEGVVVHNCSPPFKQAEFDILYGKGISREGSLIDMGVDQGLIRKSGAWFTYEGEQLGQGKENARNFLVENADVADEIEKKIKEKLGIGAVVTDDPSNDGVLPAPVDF
As to the kind of experiment: Fluorescence Cell-Free Homogeneous Dose Retest to Identify Inhibitors of RecA-Intein Splicing Activity. [Related pubchem assays (depositor defined):AID2097, AID2223, AID489010, AID492950]. In kind it is functional.

Assay [9] in a line: viability loss in HepG2 hepatoma cells – cell-based, ATP luminescence, cherry-pick, activator set 2, cytotoxicity control, dose response (AID 1053143). The format is functional.
In a further assay the test system is Vero. As to the kind of experiment: viability of Vero cells under compound – cytotoxicity control for flavivirus capping enzyme inhibitors (AID 588742). To be noted: Chlorocebus sabaeus. In kind it is functional.
Assay [10] is described as follows: Intein inhibitors as potential Tuberculosis drugs, a cytotoxicity screen. [Related pubchem assays (depositor defined):AID2221, AID2223, AID434968, AID435010, AID449749, AID449750, AID489010]. The format is functional.

For `CCOC(=O)c1c(C=O)c2ccccc2n1CC`, the EC50 in the assay with T-cell is 27.8 µM (inactive).
`CC(=O)NCCc1nc2ccccc2n1CCc1ccccc1`: the results for the IC50 in [1] and in assay [2] were > 100 µM (not active) and > 100 µM (inactive), respectively.
For the molecule `C/C(Cl)=C\Cn1c(O)c(/N=N/C(=N)S)c2cc(Br)ccc21`, the EC50 in assay [3] is 1.32 µM (active); in assay [5] it was 1.26 µM (active); in [6] it was > 30 µM (not active); with Streptococcus, 3.93 µM (active). In addition, the results for the AC50 (at CAAX prenyl protease 2; in assay [4]) were 12.6 µM (active) and 281 µM (active), respectively.
Turning to `Cc1ccnc2nc(C(=O)OCC(=O)NCCc3ccccc3)nn12`, the EC50 on Troponin, cardiac muscle was > 71.5 µM (inactive).
As to `CC(C)C(C)(C#N)NC(=O)CSc1nnc(C(F)(F)F)n1C` (centres undefined), the IC50 at Coagulation factor XII is > 50 µM (inactive).
Turning to `COC(=O)c1sc(-c2ccc(C(C)(C)C)cc2)cc1NC(=O)/C=C/C(=O)O`, the AC50 in assay [7] is 2.55 µM (active); in [8] it was 3.96 µM (active); with INS1, 4.68 µM (active); in assay [9], 23.4 µM (active). The IC50 at Genome polyprotein was 65.2 µM (active). On Protein RecA, the EC50 is 0.701 µM (active). The CC50 was 14.1 µM (active) in the assay on Vero and 11.5 µM (active) in assay [10].

As a reminder, the EC50 is the concentration that produces a half-maximal response. As a reminder, the IC50 is the point on the concentration scale where inhibition reaches its midpoint. Broadly, the AC50 is the concentration giving half of the maximal activity seen. A word on the CC50: it is the concentration at which the toxic effect on the cells reaches its halfway point.
